Measurements from ChEMBL document CHEMBL1781971, “Discovery of 5-(arenethynyl) hetero-monocyclic derivatives as potent inhibitors of BCR-ABL including the T315I gatekeeper mutant” (Bioorg Med Chem Lett, 2011).
pIC50: −log10 of the molar value. Each block holds one compound with its values, some of them ahead of it.

Key:
[1] = target: Fibroblast growth factor receptor 4 (Homo sapiens, UniProt P22455); test: Inhibition of human FGFR4 using poly[Glu:Tyr] peptide substrate by Hotspot assay
[2] = target: Platelet-derived growth factor receptor alpha (Homo sapiens, UniProt P16234); test: Inhibition of human PDGFRalpha using poly[Glu:Tyr] by Hotspot assay
[3] = Oral bioavailability in rat at 15 mg/kg; format: ADME, organism-based; settings: in vivo
[4] = target: Vascular endothelial growth factor receptor 1 (Homo sapiens, UniProt P17948); test: Inhibition of human VEGFR1 using poly[Glu:Tyr] by Hotspot assay
[5] = target: Hepatocyte growth factor receptor (Homo sapiens, UniProt P08581); test: Inhibition of human c-Met using KKKSPGEYVNIEFG peptide substrate by Hotspot assay
[6] = target: Tyrosine-protein kinase JAK1 (Homo sapiens, UniProt P23458); test: Inhibition of human JAK1 using poly[Glu:Tyr] by Hotspot assay
Sequence of Tyrosine-protein kinase JAK1 (P23458 whole entry): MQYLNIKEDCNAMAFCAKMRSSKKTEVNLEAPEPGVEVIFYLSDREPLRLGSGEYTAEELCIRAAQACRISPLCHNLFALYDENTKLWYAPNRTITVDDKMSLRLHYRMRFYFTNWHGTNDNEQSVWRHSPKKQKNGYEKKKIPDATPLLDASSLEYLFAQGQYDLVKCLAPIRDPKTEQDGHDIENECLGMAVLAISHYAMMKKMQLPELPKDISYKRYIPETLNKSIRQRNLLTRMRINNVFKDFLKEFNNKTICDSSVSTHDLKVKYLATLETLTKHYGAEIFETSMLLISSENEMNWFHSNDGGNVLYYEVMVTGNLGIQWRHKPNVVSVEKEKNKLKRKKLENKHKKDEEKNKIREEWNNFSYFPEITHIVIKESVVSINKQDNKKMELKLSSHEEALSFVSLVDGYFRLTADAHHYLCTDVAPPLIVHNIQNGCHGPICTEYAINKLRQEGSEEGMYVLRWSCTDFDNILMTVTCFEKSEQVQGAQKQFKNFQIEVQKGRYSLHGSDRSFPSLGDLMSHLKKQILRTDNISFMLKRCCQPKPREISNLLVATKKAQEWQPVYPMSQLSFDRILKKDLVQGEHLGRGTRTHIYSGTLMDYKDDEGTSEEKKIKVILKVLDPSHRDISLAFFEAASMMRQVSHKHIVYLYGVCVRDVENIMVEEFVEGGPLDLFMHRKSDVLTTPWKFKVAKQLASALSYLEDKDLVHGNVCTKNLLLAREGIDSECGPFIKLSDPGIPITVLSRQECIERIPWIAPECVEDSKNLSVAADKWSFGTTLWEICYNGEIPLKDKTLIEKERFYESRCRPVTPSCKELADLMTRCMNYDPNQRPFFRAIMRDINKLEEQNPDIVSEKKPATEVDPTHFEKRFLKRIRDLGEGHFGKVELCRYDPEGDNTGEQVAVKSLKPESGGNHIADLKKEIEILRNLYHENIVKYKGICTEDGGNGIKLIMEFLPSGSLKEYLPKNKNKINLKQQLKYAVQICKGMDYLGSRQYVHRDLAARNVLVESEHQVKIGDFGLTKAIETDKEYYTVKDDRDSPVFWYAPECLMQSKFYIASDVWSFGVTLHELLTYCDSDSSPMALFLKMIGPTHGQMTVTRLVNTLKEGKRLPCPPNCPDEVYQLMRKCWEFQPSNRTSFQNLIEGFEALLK

Ephrin type-A receptor 2 = Ephrin type-A receptor 2 (Homo sapiens, UniProt P29317); test: Inhibition of human EPHA2 using poly[Glu:Tyr] peptide substrate by Hotspot assay
[7] = target: Fibroblast growth factor receptor 2 (Homo sapiens, UniProt P21802); test: Inhibition of human FGFR2 using poly[Glu:Tyr] peptide substrate by Hotspot assay
[8] = target: Tyrosine-protein kinase JAK3 (Homo sapiens, UniProt P52333); test: Inhibition of human JAK3 using GEEEEYFELVKKKK peptide substrate by Hotspot assay
Sequence of Tyrosine-protein kinase JAK3 (P52333 whole entry): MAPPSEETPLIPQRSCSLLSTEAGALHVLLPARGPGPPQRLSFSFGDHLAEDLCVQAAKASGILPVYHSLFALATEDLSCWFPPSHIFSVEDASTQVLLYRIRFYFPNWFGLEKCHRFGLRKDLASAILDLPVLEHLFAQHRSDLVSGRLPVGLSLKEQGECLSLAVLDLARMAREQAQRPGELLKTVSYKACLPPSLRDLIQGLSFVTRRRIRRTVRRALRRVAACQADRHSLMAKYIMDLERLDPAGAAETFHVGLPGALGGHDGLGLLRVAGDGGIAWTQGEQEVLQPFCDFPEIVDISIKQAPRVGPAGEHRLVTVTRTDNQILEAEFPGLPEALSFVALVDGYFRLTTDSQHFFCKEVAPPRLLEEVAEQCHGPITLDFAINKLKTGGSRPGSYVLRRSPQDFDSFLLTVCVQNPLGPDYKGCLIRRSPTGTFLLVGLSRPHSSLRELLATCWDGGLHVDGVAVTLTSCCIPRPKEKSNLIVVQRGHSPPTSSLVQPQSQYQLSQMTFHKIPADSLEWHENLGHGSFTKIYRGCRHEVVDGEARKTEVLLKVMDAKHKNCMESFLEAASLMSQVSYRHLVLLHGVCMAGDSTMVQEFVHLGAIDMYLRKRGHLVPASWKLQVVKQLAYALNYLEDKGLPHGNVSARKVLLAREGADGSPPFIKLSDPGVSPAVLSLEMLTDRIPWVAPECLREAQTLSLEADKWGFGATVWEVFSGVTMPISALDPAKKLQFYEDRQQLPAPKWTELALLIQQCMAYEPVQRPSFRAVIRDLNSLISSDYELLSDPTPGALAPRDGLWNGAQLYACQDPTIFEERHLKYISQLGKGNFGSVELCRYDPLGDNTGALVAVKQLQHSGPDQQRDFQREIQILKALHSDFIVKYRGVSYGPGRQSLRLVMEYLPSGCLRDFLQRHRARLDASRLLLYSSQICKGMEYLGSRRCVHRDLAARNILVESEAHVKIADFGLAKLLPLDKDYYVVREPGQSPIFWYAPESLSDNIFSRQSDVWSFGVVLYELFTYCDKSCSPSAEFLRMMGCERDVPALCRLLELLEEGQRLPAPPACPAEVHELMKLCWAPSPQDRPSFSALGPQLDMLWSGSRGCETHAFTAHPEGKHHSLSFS

Angiopoietin-1 receptor = Angiopoietin-1 receptor (Homo sapiens, UniProt Q02763); test: Inhibition of human Tie2/TEK using poly[Glu:Tyr] by Hotspot assay
[9] = target: Fibroblast growth factor receptor 3 (Homo sapiens, UniProt P22607); test: Inhibition of human FGFR3 using poly[Glu:Tyr] peptide substrate by Hotspot assay
[10] = Half life in rat at 5 mg/kg, iv; format: ADME, organism-based; parameters: dose 5 mg/kg, route intravenous; settings: in vivo
[11] = target: Mast/stem cell growth factor receptor Kit (Homo sapiens, UniProt P10721); test: Inhibition of human c-Kit using poly[Glu:Tyr] by Hotspot assay
[12] = Cmax in rat at 15 mg/kg, po; format: ADME, organism-based; parameters: dose 15 mg/kg, route oral; settings: in vivo
cells [13] = settings: Mus musculus, BaF3
[14] = Volume of distribution in rat at 5 mg/kg, iv; format: ADME, organism-based; parameters: dose 5 mg/kg, route intravenous; settings: in vivo
[15] = target: Serine/threonine-protein kinase B-raf (Homo sapiens, UniProt P15056); test: Inhibition of human BRAF using MEK1 (K97R), ATP substrate by Hotspot assay
[16] = Plasma concentration in mouse after 6 hrs at 30 mg/kg, po; format: ADME, organism-based; parameters: dose 30 mg/kg, route oral
[17] = Half life in rat at 15 mg/kg, po; format: ADME, organism-based; parameters: dose 15 mg/kg, route oral; settings: in vivo
Insulin receptor = Insulin receptor (Homo sapiens, UniProt P06213); test: Inhibition of human IR using poly[Glu:Tyr] by Hotspot assay
Rattus norvegicus [18] = test: AUC in rat at 5 mg/kg, iv; format: ADME, organism-based, Plasma; parameters: dose 5 mg/kg, route intravenous; settings: in vivo
[19] = target: Tyrosine-protein kinase JAK2 (Homo sapiens, UniProt O60674); test: Inhibition of human JAK2 using poly[Glu:Tyr] by Hotspot assay
Sequence of Tyrosine-protein kinase JAK2 (O60674 whole entry): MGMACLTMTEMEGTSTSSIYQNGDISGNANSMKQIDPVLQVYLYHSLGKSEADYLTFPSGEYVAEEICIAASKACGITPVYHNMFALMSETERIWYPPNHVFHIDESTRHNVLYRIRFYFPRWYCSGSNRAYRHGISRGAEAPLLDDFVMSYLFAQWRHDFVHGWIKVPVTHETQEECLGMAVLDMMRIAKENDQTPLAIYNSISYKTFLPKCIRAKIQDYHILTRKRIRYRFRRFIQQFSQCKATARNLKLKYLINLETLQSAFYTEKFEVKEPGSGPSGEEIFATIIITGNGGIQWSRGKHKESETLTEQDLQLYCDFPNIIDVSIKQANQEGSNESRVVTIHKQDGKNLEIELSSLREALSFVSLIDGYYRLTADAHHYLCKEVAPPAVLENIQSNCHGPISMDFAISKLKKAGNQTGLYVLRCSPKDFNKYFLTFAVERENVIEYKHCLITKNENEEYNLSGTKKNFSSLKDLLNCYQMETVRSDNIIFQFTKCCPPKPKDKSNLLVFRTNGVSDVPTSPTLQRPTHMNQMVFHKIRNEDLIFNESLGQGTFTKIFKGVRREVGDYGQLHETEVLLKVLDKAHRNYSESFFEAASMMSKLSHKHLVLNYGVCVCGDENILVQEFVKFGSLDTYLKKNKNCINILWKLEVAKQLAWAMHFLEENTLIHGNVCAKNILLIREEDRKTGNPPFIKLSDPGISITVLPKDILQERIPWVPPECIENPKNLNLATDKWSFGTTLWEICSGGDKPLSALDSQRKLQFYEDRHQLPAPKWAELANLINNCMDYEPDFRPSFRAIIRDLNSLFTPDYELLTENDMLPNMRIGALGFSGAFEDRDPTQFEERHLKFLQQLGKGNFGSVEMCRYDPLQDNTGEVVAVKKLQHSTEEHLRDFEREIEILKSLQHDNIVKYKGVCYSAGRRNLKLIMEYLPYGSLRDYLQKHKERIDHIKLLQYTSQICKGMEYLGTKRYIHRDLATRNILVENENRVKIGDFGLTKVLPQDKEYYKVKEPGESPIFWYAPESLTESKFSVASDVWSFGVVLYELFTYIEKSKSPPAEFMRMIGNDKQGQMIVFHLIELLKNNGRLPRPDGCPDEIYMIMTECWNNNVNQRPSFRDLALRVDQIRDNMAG

[20] = target: Vascular endothelial growth factor receptor 2 (Homo sapiens, UniProt P35968); test: Inhibition of human VEGFR2 using poly[Glu:Tyr] by Hotspot assay
Ephrin type-A receptor 7 = Ephrin type-A receptor 7 (Homo sapiens, UniProt Q15375); test: Inhibition of human EPHA7 using poly[Glu:Tyr] peptide substrate by Hotspot assay
[21] = Antitumor activity against mouse BA/F3 cells expressing ABL T315I mutant xenografted in mouse assessed as increase in overall survival at 30 mg/kg, po QD for 19 days relative to control; format: functional, BaF3
[22] = Cmax in rat at 5 mg/kg, iv; format: ADME, organism-based; parameters: dose 5 mg/kg, route intravenous; settings: in vivo
[23] = target: Macrophage colony-stimulating factor 1 receptor (Homo sapiens, UniProt P07333); test: Inhibition of human FMS using poly[Glu:Tyr] by Hotspot assay
Ephrin type-A receptor 3 = Ephrin type-A receptor 3 (Homo sapiens, UniProt P29320); test: Inhibition of human EPHA3 using poly[Glu:Tyr] peptide substrate by Hotspot assay
cells [24] = settings: Mus musculus, BaF3; remark: listed apart in the source
Description: Antiproliferative activity against BCR-ABL-negative parental mouse BA/F3 cells

[25] = Clearance in rat at 5 mg/kg, iv; format: ADME, organism-based; parameters: dose 5 mg/kg, route intravenous; settings: in vivo
[26] = target: Receptor-type tyrosine-protein kinase FLT3 (Homo sapiens, UniProt P36888)
cells [27] = settings: Mus musculus, BaF3; remark: listed apart in the source
Description: Antiproliferative activity against mouse BA/F3 cells expressing wild type BCR-ABL

Aurora kinase A = Aurora kinase A (Homo sapiens, UniProt O14965); test: Inhibition of human Aurora A using H-LRRASLG peptide substrate by Hotspot assay
Sequence of Aurora kinase A (O14965 whole entry): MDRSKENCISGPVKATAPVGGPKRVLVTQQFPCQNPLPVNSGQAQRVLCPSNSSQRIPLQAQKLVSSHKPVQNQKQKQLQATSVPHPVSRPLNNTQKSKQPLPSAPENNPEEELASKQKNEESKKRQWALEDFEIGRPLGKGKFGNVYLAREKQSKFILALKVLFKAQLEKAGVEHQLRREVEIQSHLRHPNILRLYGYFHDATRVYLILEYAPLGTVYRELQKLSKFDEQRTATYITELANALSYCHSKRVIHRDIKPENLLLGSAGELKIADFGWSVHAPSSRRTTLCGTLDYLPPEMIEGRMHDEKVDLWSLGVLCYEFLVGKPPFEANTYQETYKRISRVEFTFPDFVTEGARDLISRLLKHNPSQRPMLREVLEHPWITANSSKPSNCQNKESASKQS

Rattus norvegicus [28] = test: AUC in rat at 15 mg/kg, po; format: ADME, organism-based, Plasma; parameters: dose 15 mg/kg, route oral; settings: in vivo
[29] = target: Proto-oncogene tyrosine-protein kinase Src (Homo sapiens, UniProt P12931); test: Inhibition of human Src using poly[Glu:Tyr] by Hotspot assay
[30] = target: Cyclin-dependent kinase 2/cyclin E1 (Homo sapiens, UniProt P24941); test: Inhibition of human CDK2/Cyclin E using Histone H1 substrate by Hotspot assay; format: protein-complex assay
[31] = target: Serine/threonine-protein kinase B-raf (Homo sapiens, UniProt P15056, V600E); test: Inhibition of human BRAF V599E mutant using MEK1 (K97R), ATP substrate by Hotspot assay
[32] = target: Tyrosine-protein kinase Lyn (Homo sapiens, UniProt P07948); test: Inhibition of human LYN using poly[Glu:Tyr] by Hotspot assay
[33] = target: Fibroblast growth factor receptor 1 (Homo sapiens, UniProt P11362); test: Inhibition of human FGFR1 using KKKSPGEYVNIEFG peptide substrate by Hotspot assay
Sequence of Fibroblast growth factor receptor 1 (P11362 whole entry): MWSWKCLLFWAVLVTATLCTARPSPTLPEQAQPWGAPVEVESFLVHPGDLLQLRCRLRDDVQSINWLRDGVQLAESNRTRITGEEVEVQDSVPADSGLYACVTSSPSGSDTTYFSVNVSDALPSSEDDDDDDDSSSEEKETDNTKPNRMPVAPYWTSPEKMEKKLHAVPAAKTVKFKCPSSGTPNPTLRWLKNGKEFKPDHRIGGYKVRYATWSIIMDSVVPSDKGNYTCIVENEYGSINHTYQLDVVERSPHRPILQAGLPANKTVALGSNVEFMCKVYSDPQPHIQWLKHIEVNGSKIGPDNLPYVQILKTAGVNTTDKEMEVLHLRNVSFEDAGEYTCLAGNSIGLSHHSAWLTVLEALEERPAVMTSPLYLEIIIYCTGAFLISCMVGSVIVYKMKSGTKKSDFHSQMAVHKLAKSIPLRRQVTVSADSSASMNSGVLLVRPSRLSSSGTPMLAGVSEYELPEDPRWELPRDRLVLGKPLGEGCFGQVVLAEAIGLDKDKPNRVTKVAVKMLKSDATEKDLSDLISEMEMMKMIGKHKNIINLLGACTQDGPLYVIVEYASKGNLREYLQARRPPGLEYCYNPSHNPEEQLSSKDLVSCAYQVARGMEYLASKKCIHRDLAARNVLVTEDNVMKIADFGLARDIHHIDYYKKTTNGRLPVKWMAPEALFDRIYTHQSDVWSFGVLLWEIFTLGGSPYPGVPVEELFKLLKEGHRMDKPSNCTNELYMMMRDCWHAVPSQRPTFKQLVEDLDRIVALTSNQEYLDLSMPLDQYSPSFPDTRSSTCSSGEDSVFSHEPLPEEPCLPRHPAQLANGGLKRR

[34] = target: Tyrosine-protein kinase ABL1 (Homo sapiens, UniProt P00519)
[35] = target: Tyrosine-protein kinase ABL1 (Homo sapiens, UniProt P00519, T315I)

SMILES: CNC(=O)c1ncc(C#Cc2cc(C(=O)Nc3ccc(CN4CCN(CCO)CC4)c(C(F)(F)F)c3)ccc2C)n1C
pIC50 [1]: 7.47
pIC50 [2]: 8.89
bioavailability [3]: 45%
pIC50 [4]: 8.28
pIC50 [5]: < 5.52
pIC50 [6]: 7.26
pIC50 (Ephrin type-A receptor 2): 9.22
pIC50 [7]: 8.82
pIC50 [8]: 7.24
pIC50 (Angiopoietin-1 receptor): 8.66
pIC50 [9]: 7.98
half-life [10]: 336 min
pIC50 [11]: < 5.52
Cmax [12]: 344 ng/mL
pIC50 (cells [13]): 8.08
Vd [14]: 8.2 L/kg
pIC50 [15]: 7.70
concentration at 6 h [16]: 1150 ng/mL
half-life [17]: 600 min
pIC50 (Insulin receptor): < 5.52
AUC (Rattus norvegicus [18]): 970 h/ng/mL
pIC50 [19]: 6.27
pIC50 [20]: 8.64
pIC50 (Ephrin type-A receptor 7): 8.38
Activity [21]: 130%
Cmax [22]: 200 ng/mL
pIC50 [23]: 8.14
pIC50 (Ephrin type-A receptor 3): 8.92
pIC50 (cells [24]): 5.51
clearance [25]: 17.2 mL/min/kg
pIC50 [26]: 8.70
pIC50 (cells [27]): 8.89
pIC50 (Aurora kinase A): < 5.52
AUC (Rattus norvegicus [28]): 6586 h/ng/mL
pIC50 [29]: 8.40
pIC50 [30]: 8.19
pIC50 [31]: 7.59
pIC50 [32]: > 9.82
pIC50 [33]: 8.74

SMILES: Cc1ccc(C(=O)Nc2ccc(CN3CCN(CCO)CC3)c(C(F)(F)F)c2)cc1C#Cc1cnc(C(N)=O)n1C
bioavailability [3]: 14%
half-life [10]: 210 min
Cmax [12]: 61.4 ng/mL
pIC50 (cells [13]): 8.24
pIC50 [34]: 8.44
Vd [14]: 11 L/kg
concentration at 6 h [16]: 333 ng/mL
half-life [17]: 378 min
AUC (Rattus norvegicus [18]): 2320 h/ng/mL
Cmax [22]: 598 ng/mL
pIC50 (cells [24]): 5.88
clearance [25]: 35.8 mL/min/kg
pIC50 (cells [27]): 9.21
pIC50 [35]: 7.44
AUC (Rattus norvegicus [28]): 962 h/ng/mL

SMILES: COCCN1CCN(Cc2ccc(NC(=O)c3ccc(C)c(C#Cc4cnc(C(N)=O)n4C)c3)cc2C(F)(F)F)CC1
pIC50 (cells [13]): 7.97
pIC50 [34]: 8.32
pIC50 (cells [24]): 5.62
pIC50 (cells [27]): 9.19
pIC50 [35]: 6.85

SMILES: CCC(=O)Nc1ccc(C#Cc2cc(C(=O)Nc3ccc(CN4CCN(C)CC4)c(C(F)(F)F)c3)ccc2C)cn1
pIC50 (cells [13]): 7.87
pIC50 [34]: 7.54
pIC50 (cells [24]): 5.78
pIC50 (cells [27]): 8.60
pIC50 [35]: 6.98

SMILES: CNC(=O)c1ncc(C#Cc2cc(C(=O)Nc3ccc(CN4CCN(C)CC4)c(C(F)(F)F)c3)ccc2C)n1C
pIC50 (cells [13]): 8.40
pIC50 [34]: 7.76
pIC50 (cells [24]): 5.80
pIC50 (cells [27]): 8.77
pIC50 [35]: 7.74

Second part, the compound after the results:

pIC50 (cells [13]): 7.76
pIC50 [34]: 7.54
pIC50 (cells [24]): 5.90
pIC50 (cells [27]): 8.55
pIC50 [35]: 6.86
SMILES: Cc1ccc(C(=O)Nc2ccc(CN3CCN(C)CC3)c(C(F)(F)F)c2)cc1C#Cc1cnc(N)s1

pIC50 (cells [13]): 7.34
pIC50 [34]: 7.39
pIC50 (cells [24]): 5.69
pIC50 (cells [27]): 8.39
pIC50 [35]: 6.91
SMILES: Cc1ccc(C(=O)Nc2ccc(CN3CCN(C)CC3)c(C(F)(F)F)c2)cc1C#Cc1cccnc1

pIC50 (cells [13]): 8.26
pIC50 [34]: 7.92
pIC50 (cells [24]): 7.01
pIC50 (cells [27]): 9.17
pIC50 [35]: 7.57
SMILES: CC(=O)Nc1ncc(C#Cc2cc(C(=O)Nc3ccc(CN4CCN(C)CC4)c(C(F)(F)F)c3)ccc2C)s1

pIC50 (cells [13]): 6.28
pIC50 [34]: 7.30
pIC50 (cells [24]): 6.22
pIC50 (cells [27]): 6.71
pIC50 [35]: 6.34
SMILES: Cc1ccc(C(=O)Nc2ccc(CN3CCN(C)CC3)c(C(F)(F)F)c2)cc1C#Cc1cnc(NC2CC2)nc1
